Laboratory results as given in patent publication US20240270762A1, “PENICILLIN-BINDING PROTEIN INHIBITORS” (priority 2021, published 2024).
≈ marks a conversion by molar mass, not a printed value.

Experiments:
[1] = target: T1, PBP1a from Acinetobacter baumannii (ATCC 19606) (Acinetobacter baumannii, UniProt A0ABX6CK30); assay: Bocillin-FL fluorescence polarization competition binding, A. baumannii PBP1a; settings: fluorescence polarization competition binding assay using Bocillin-FL; read-out: A. baumannii PBP1a Potency
T1 sequence (A0ABX6CK30 1-851): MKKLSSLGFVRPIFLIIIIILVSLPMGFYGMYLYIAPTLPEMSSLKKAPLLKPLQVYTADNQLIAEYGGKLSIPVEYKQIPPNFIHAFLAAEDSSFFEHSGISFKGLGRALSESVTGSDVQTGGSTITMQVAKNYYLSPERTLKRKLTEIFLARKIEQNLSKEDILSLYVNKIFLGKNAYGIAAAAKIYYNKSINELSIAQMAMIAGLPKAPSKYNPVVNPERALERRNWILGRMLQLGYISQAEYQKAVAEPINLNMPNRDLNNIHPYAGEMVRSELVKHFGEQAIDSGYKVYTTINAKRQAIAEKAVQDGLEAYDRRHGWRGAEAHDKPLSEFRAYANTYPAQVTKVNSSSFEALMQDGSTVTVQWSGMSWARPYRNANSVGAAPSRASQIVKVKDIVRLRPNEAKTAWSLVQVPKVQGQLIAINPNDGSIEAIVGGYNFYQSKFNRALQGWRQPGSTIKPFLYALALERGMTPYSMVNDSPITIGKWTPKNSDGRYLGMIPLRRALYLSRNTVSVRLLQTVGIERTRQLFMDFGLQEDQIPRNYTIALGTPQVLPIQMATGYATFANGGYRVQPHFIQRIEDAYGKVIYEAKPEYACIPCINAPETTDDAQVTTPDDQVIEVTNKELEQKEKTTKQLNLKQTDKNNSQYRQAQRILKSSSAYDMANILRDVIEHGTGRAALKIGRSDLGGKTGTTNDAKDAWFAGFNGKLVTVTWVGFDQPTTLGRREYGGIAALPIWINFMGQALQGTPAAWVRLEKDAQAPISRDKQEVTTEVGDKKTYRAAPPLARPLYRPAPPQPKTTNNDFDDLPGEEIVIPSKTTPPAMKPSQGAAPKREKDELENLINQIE
Text: To determine the ability of boronic acid-based test PBP inhibitors to bind Penicillin Binding Proteins (PBPs), Bocillin-FL (fluorescently-labeled penicillin V; ThermoFisher Scientific) was used in a fluorescence polarization (FP) competition binding assay to assess inhibitor binding to PBP3 from Escherichia coli (K-12), PBP3 from Pseudomonas aeruginosa (PAO1), PBP1a and PBP3 from Acinetobacter baumannii (ATCC 19606), and PBP2 from Neisseria gonorrhoeae (FA19). PBPs were cloned and purified as described previously (E. coli PBP3, King, D. T, et al., ACS Infectious Diseases 2015, 1, 175-184; P. aeruginosa PBP3, Han et. al., PNAS 2010, 107 (51), 22002-22007; A. baumannii PBPs, Penwell et. al., Antimicrob. Agents Chemother. 2015, 59 (3), 1680-1689; N. gonorrhoeae PBP2, Singh et. al., J. Biol. Chem. 2019, 294 (38), 14020-14032). To establish assay conditions for competition binding, enzyme titration/saturation binding experiments were initially performed. Bocillin-FL was prepared at 0.2 μM in a buffer comprised of 50 mM Hepes (pH 8.0), 300 mM NaCl and 10% (v/v) glycerol for reactions with E. coli, P. aeruginosa and N. gonorrhoeae PBPs, and 25 mM Tris (pH 8.0), 200 mM NaCl, 10% (v/v) glycerol and 0.005% (v/v) Tween 20 for reactions with A. baumannii PBPs. Saturation binding was performed by mixing 40 μl of PBP solutions ranging in concentrations from 0-24 μM with 40 μl of the 0.2 μM Bocillin-FL solution, in individual wells of a black 384-well microplate. FP was measured immediately upon mixing (Excitation, 490 nm; Emission, 520 nm; g-factor, 0.96), using a Cytation3 (BioTek) microplate reader and measured continuously for up to 120 minutes. The FP response stabilized after 15 minutes for P. aeruginosa and A. baumannii PBP3, 30 minutes for E. coli PBP3 and A. baumannii PBP1a, and less than 1 minute for N. gonorrhoeae PBP2. […] The competition binding assay (80 μl final volume) was validated using beta-lactams and PBPs at final concentrations of: 1.5 μM for E. coli PBP3; 0.75 μM for P. aeruginosa PBP3; 1 μM for A. baumannii PBP1a; 0.2 μM for A. baumannii PBP3; and 0.25 μM for N. gonorrhoeae PBP2. Bocillin-FL was at 0.1 μM (0.05 μM with A. baumannii PBP1a) and beta-lactam concentrations ranged from 0-1,000 μM. E. coli PBP3 was incubated with increasing concentrations of ampicillin in a black 384-well microplate (Corning) for 30 minutes. P. aeruginosa PBP3 was incubated for 15 minutes with aztreonam, whereas A. baumannii PBP1a and PBP3 were incubated for 15 minutes with meropenem, and then Bocillin-FL was added followed immediately by the FP measurement for up to 60 minutes. […] The beta-lactam potency was reported as the concentration of beta-lactam required to reduce the amount of PBP bound-Bocillin-FL by 50% (EC50). […] The EC50 of aztreonam was determined to be <0.5 μM for P. aeruginosa PBP3. […] Binding assays for boronic acid PBP inhibitors were performed in an identical fashion for the respective PBPs.

[2] = test system: A. baumannii CDC-0036; assay: microbe, parasite or virus in culture; type: cell-based; settings: Acinetobacter baumannii, CDC0036, read-out: MIC, A. baumannii CDC-0036
[3] = test system: B. humptydooensis ATCC BAA-2767; assay: microbe, parasite or virus in culture; type: cell-based; settings: Burkholderia humptydooensis, ATCCBAA2767, read-out: Minimum inhibitory concentration (MIC), B. humptydooensis ATCC BAA-2767
[4] = target: A. baumannii PBP2 (Acinetobacter baumannii, UniProt D0C8Z9); assay: Bocillin-FL competition binding via gel filtration, A. baumannii PBP2
Sequence of A. baumannii PBP2 (D0C8Z9 whole entry): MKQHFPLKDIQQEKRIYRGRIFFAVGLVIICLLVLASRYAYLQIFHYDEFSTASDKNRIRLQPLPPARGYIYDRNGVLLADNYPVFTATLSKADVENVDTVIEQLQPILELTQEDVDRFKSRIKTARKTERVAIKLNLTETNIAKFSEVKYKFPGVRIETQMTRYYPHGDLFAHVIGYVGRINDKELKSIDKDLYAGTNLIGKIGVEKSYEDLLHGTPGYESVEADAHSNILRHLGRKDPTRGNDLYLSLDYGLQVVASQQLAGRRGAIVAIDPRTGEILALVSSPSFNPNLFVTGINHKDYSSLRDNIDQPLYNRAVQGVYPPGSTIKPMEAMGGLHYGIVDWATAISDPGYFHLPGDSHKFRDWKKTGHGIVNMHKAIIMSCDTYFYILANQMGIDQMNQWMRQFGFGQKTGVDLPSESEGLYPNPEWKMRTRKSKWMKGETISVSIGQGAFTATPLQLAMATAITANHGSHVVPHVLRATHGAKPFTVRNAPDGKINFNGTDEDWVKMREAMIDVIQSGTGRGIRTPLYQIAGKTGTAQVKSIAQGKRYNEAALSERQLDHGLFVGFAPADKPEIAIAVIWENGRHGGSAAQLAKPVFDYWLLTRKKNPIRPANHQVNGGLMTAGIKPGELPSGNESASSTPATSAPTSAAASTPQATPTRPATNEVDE
Outline: (§1)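 Competitive equilibrium binding with Bocillin-FL reporter: PBP pre-incubated with inhibitor dilutions, Bocillin-FL added, 15 min incubation. Labelled enzyme isolated by size-exclusion spin plates, fluorescence measured; EC50 obtained by fitting bound fraction against inhibitor concentration with a Hill-coefficient model.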

[5] = target: T2, A. baumannii PBP1a (Acinetobacter baumannii, UniProt A0ABX6CK30); assay: Bocillin-FL competition binding via gel filtration, A. baumannii PBP1a; settings: competition binding assay using Bocillin-FL via gel filtration; read-out: A. baumannii PBP1a Potency
T2 sequence (A0ABX6CK30 1-851): T1 sequence (A0ABX6CK30 1-851)
Outline: as §1

SMILES | IC50 [1] | MIC [2] | MIC [3] | EC50 [4] | EC50 [5]
CS(=O)(=O)N1CCN(C(=O)N[C@@H](C(=O)N[C@H]2Cc3cccc(C(=O)O)c3OB2O)c2ccc(P(=O)(O)O)c(F)c2F)C1=O (single isomer, unassigned) [Example 13] | > 250 µM | – | – | – | –
CS(=O)(=O)N1CCN(C(=O)N[C@@H](C(=O)N[C@H]2Cc3ccc(F)c(C(=O)O)c3OB2O)c2ccc(P(=O)(O)O)c(F)c2)C1=O (single isomer, unassigned) [Example 19] | – | > 128 µg/mL | 32 to 64 µg/mL (≈ 49.5 to 99 µM) | – | –
O=C(O)c1c(F)ccc2c1OB(O)[C@@H](NC(=O)C(NC(=O)N1CCN(Cc3ccc(O)c(O)c3Cl)C(=O)C1=O)c1ccc(P(=O)(O)O)cc1)C2 (stereo partly drawn) [Example 8, (3R)-3-(2-(4-(2-chloro-3,4-dihydroxybenzyl)-2,3-dioxopiperazine-1-carboxamido)-2-(4-phosphonophenyl)acetamido)-7-fluoro-2-hydroxy-3,4-dihydro-2H-benzo[e][1,2]oxaborinine-8-carboxylic acid] | – | 2 to 4 µg/mL (≈ 2.72 to 5.44 µM) | < 1 µg/mL | 10 to 50 µM | 10 to 50 µM
CS(=O)(=O)N1CCN(C(=O)NC(C(=O)N[C@H]2Cc3cccc(C(=O)O)c3OB2O)c2ccc(P(=O)(O)O)c(Cl)c2)C1=O (stereo partly drawn) [Example 11, (3R)-3-(2-(3-chloro-4-phosphonophenyl)-2-(3-(methylsulfonyl)-2-oxoimidazolidine-1-carboxamido)acetamido)-2-hydroxy-3,4-dihydro-2H-benzo[e][1,2]oxaborinine-8-carboxylic acid] | 50 to 250 µM | – | – | – | –
CS(=O)(=O)N1CCN(C(=O)N[C@@H](C(=O)N[C@H]2Cc3ccc(F)c(C(=O)O)c3OB2O)c2ccc(P(=O)(O)O)c(F)c2F)C1=O [Example 16, (R)-3-((R)-2-(2,3-difluoro-4-phosphonophenyl)-2-(3-(methylsulfonyl)-2-oxoimidazolidine-1-carboxamido)acetamido)-7-fluoro-2-hydroxy-3,4-dihydro-2H-benzo[e][1,2]oxaborinine-8-carboxylic acid] | > 250 µM | – | – | – | –
CS(=O)(=O)N1CCN(C(=O)NC(C(=O)N[C@H]2Cc3cccc(C(=O)O)c3OB2O)c2ccc(P(=O)(O)O)c(O)c2)C1=O (stereo partly drawn) [Example 17, (3R)-2-hydroxy-3-(2-(3-hydroxy-4-phosphonophenyl)-2-(3-(methylsulfonyl)-2-oxoimidazolidine-1-carboxamido)acetamido)-3,4-dihydro-2H-benzo[e][1,2]oxaborinine-8-carboxylic acid] | – | – | – | 50 to 250 µM | –
CCN1CCN(C(=O)NC(C(=O)N[C@H]2Cc3cccc(C(=O)O)c3OB2O)c2ccc(CP(=O)(O)O)cc2)C(=O)C1=O (stereo partly drawn) [Example 20, (3R)-3-(2-(4-ethyl-2,3-dioxopiperazine-1-carboxamido)-2-(4-(phosphonomethyl)phenyl)acetamido)-2-hydroxy-3,4-dihydro-2H-benzo[e][1,2]oxaborinine-8-carboxylic acid] | > 250 µM | – | – | – | –
CCN1CCN(C(=O)NC(C(=O)N[C@H]2Cc3cccc(C(=O)O)c3OB2O)c2cccc(CP(=O)(O)O)c2)C(=O)C1=O (stereo partly drawn) [Example 22, (3R)-3-(2-(4-ethyl-2,3-dioxopiperazine-1-carboxamido)-2-(3-(phosphonomethyl)phenyl)acetamido)-2-hydroxy-3,4-dihydro-2H-benzo[e][1,2]oxaborinine-8-carboxylic acid] | > 250 µM | – | – | – | –
O=C(O)c1c(F)ccc2c1OB(O)[C@@H](NC(=O)C(NC(=O)N1CCN(Cc3ccc(O)c(O)c3Cl)C(=O)C1=O)c1ccc(P(=O)(O)O)c(F)c1)C2 (stereo partly drawn) [Example 23, (3R)-3-(2-(4-(2-chloro-3,4-dihydroxybenzyl)-2,3-dioxopiperazine-1-carboxamido)-2-(3-fluoro-4-phosphonophenyl)acetamido)-7-fluoro-2-hydroxy-3,4-dihydro-2H-benzo[e][1,2]oxaborinine-8-carboxylic acid] | > 250 µM | < 1 µg/mL | < 1 µg/mL | < 10 µM | 10 to 50 µM
O=C(O)c1cccc2c1OB(O)[C@@H](NC(=O)C(NC(=O)N1CCN(Cc3ccc(O)c(O)c3Cl)C(=O)C1=O)c1ccc(P(=O)(O)O)cc1)C2 (stereo partly drawn) [Example 24, (3R)-3-(2-(4-(2-chloro-3,4-dihydroxybenzyl)-2,3-dioxopiperazine-1-carboxamido)-2-(4-phosphonophenyl)acetamido)-2-hydroxy-3,4-dihydro-2H-benzo[e][1,2]oxaborinine-8-carboxylic acid] | > 250 µM | < 1 µg/mL | < 1 µg/mL | 10 to 50 µM | 10 to 50 µM
O=C(O)c1c(F)ccc2c1OB(O)[C@@H](NC(=O)C(NC(=O)N1CCN(Cc3ccc(O)c(O)c3Cl)C1=O)c1ccc(P(=O)(O)O)cc1)C2 (stereo partly drawn) [Example 46, (3R)-3-(2-(3-(2-chloro-3,4-dihydroxybenzyl)-2-oxoimidazolidine-1-carboxamido)-2-(4-phosphonophenyl)acetamido)-7-fluoro-2-hydroxy-3,4-dihydro-2H-benzo[e][1,2]oxaborinine-8-carboxylic acid] | > 250 µM | – | < 1 µg/mL | 10 to 50 µM | < 10 µM
O=C(N[C@@H](C(=O)N[C@H]1Cc2cccc(C(=O)O)c2OB1O)c1ccc(P(=O)(O)O)cc1)c1ccc(O)c(O)c1Cl [Example 49, (R)-3-((R)-2-(2-chloro-3,4-dihydroxybenzamido)-2-(4-phosphonophenyl)acetamido)-2-hydroxy-3,4-dihydro-2H-benzo[e][1,2]oxaborinine-8-carboxylic acid] | – | > 128 µg/mL | < 1 µg/mL | 10 to 50 µM | 10 to 50 µM
O=C(NCCN1CCN(C(=O)NC(C(=O)N[C@H]2Cc3ccc(F)c(C(=O)O)c3OB2O)c2ccc(P(=O)(O)O)cc2)C(=O)C1=O)c1ccc(O)c(O)c1Cl (stereo partly drawn) [Example 120, (3R)-3-(2-(4-(2-(2-chloro-3,4-dihydroxybenzamido)ethyl)-2,3-dioxopiperazine-1-carboxamido)-2-(4-phosphonophenyl)acetamido)-7-fluoro-2-hydroxy-3,4-dihydro-2H-benzo[e][1,2]oxaborinine-8-carboxylic acid] | – | 8 to 16 µg/mL (≈ 10.1 to 20.2 µM) | < 1 µg/mL | 10 to 50 µM | 10 to 50 µM
